{"source": "patent US6344211B1", "about": "“Transdermal absorption of active substances from subcooled melts” (LTS Lohmann Therapie-Systeme GmbH, priority 1994, dated 2002)", "key": {"[1]": {"details": "cited from earlier work"}, "[2]": {"assay": "dissociation constant (pKa) of the acids used", "type": "physicochemical", "details": "determined by experiment", "description": "Column 1 indicates the number of the experiment, column 2 the concentration of buprenorphine base, column 3 the quality and quantity of the acid used, column 4 the dissociation constant of the acids used, column 5 the plasticizer, column 6 the polymers used, and column 7 the absorption rate under in-vitro-conditions. The relative amount of buprenorphine base diffusing through mice skin within 24 h, relative to the amount per TTS, is given. The penetration results were obtained using mice skin clamped in a Franz-Cell.\nIt is seen from column 4 that the dissociation constants of the carboxylic acids used are quite similar. However, if the plasticizer, oleyl oleate, is used in a 10%-concentration each time, it can be seen from Examples 1 and 3 or 2 and 4 that only the carboxylic acids having a tendency to form subcooled melts cause a marked penetration increase under in-vitro conditions. […] This was compensated by a higher concentration of the two weaker acids, amounting to 15%, as compared to the concentration of the two stronger acids. However, it can also be seen that the dissociation constants are so similar that the absorption-promoting effect cannot be explained by the dissociation constants."}}, "note": "Read-outs that look alike come from different tables or passages of the source. Marks after values point to notes of the source that are not given here.", "data": [{"smiles": "O=C(O)CCCC(=O)O", "note": "[glutaric acid]", "values": [{"measurement": "pKa value", "setting": "[1]; pKa I of glutaric acid, given for the glutaric acid monomethyl ester line", "result": "4.33*"}]}, {"smiles": "CC(=O)CCC(=O)O", "note": "[levulic acid]", "values": [{"measurement": "pKa value", "setting": "[2]", "result": "4.4**"}]}, {"smiles": "C=CCCCCCCCCC(=O)O", "note": "[undecenoic acid]", "values": [{"measurement": "pKa value", "setting": "[1]; dissociation constant of the acid used in the TTS", "result": 4.5}]}]}
